Data from article PMC9603750, “Chalcone-Acridine Hybrid Suppresses Melanoma Cell Progression via G2/M Cell Cycle Arrest, DNA Damage, Apoptosis, and Modulation of MAP Kinases Activity” (International Journal of Molecular Sciences, 2022).

Assays:
BLM = assay: MTT assay (metabolic activity); type: cell-based, human
Method: Cell lines A2058 (human melanoma lymph node metastasis, cat. 91100402) from ECACC (Public Health England, Salisbury, UK) and BLM (human melanoma lung metastasis a gift from prof. K. Smetana, Institute of Anatomy, Charles University in Prague) were cultured in a medium consisting of high glucose Dulbecco’s Modified Eagle’s Medium (DMEM) and sodium pyruvate (GE Healthcare, Piscataway, NJ, USA). The growth medium was supplemented with a 10% fetal bovine serum (FBS) and antibiotic/antimycotic solution 1 × HyClone™ (GE Healthcare, Chicago, IL, USA). The MCF-10A (human mammary epithelial cells) cell line was cultured in a medium consisting of high glucose Dulbecco’s Modified Eagle’s Medium F12 (DMEM/F12) (Biosera, Kansas City, MO, USA). The growth medium was supplemented with a 10% FBS, antibiotic/antimycotic solution 1 × HyClone™ (GE Healthcare, Chicago, IL, USA), epidermal growth factor (EGF) (20 ng/mL final), hydrocortisone (0.5 μg/mL final) and insulin (10 μg/mL final) (Sigma-Aldrich Chemie, Steinheim, Germany). Cells were cultured in humidified air at 37 °C with atmosphere containing 5% CO2.
The half-maximal inhibitory concentration values (IC50) and metabolism inhibition of tested synthetic chalcone derivatives were determined by MTT (3-(4,5-di-methylthiazol-2-yl)2,5-diphenyltetrazolium bromide) colorimetric assay (Sigma-Aldrich Chemie, Steinheim, Germany). Tested cell lines were seeded at a density of 5 × 10^3 cells/well in 96-well culture plates. After 24 h, the tested chalcones in concentrations of 100, 50 and 10 μmol/L were added and incubation proceeded for the next 72 h. In the next step, 10 μL of MTT (5 mg/mL) was added to each well containing cells and incubated for another 4 h at 37 °C during which MTT was metabolized to insoluble formazan in cells. After 4 h, 100 μL of a 10% sodium dodecyl sulphate (SDS) was added to each well and another 24 h were allowed for the formazan crystals to dissolve. The metabolic activity of cells was evaluated by measuring the absorbance at wavelength 540 nm using the automated Cytation™ 3 Cell Imaging Multi-Mode Reader (Biotek, Winooski, VT, USA). Three independent analyses were performed.

BLM melanoma cells [1] = assay: Apoptosis detection, Annexin V/PI staining; type: cell-based, human; conditions: 1C 20 μmol/L
Excerpt: (§1) Phosphatidylserine (PS) is an anionic phospholipid located on the cytoplasmic surface of the plasma membrane in cells with intact membranes. The externalization of PS from the inner to outer surface of the lipid bilayer of plasma membrane is a typical marker of apoptosis in the early stages. Annexin V/PI double staining is a method for dividing cells into populations of living (An^−/PI^− Q3), early apoptotic (An^+/PI^− Q4), late apoptotic/necrotic (An^+/PI^+ Q2) and dead (An^−/PI^+ Q1). […] Furthermore, the concomitant decrease of living cells and the increased number of dead cells were also observed in a time-dependent pattern (Table 4, Figure 4).
(§2) To perform apoptosis detection, A2058 and BLM melanoma cells were seeded in Petri dishes at a density of 1 × 10^5/dish and treated with chalcone 1C and DMSO as the negative control at the same concentrations for 24, 48 and 72 h. In the next step, adherent and floating melanoma cells were harvested, centrifuged and pellets were resuspended in washing buffer (PBS). Resuspended melanoma cells were stained with Annexin V-Alexa Fluor® 647 antibody (Thermo Scientific, Rockford, IL, USA) in binding buffer for 20 min in the dark at room temperature. Finally, melanoma cells were washed, stained with 1 μL of propidium iodide (final concentration 25 μg/mL) for 5 min and analysed using a BD FACSCalibur^TM Flow Cytometer (Becton Dickinson, San Jose, CA, USA). Three independent analyses were performed.

A2058 melanoma cells [2] = assay: Apoptosis detection, Annexin V/PI staining; type: cell-based, human; conditions: A2058, 1C 10 μmol/L
Excerpt: as §1, §2

BLM melanoma cells [3] = assay: Cell cycle analysis by flow cytometry (PI); type: cell-based, human; conditions: 1C 20 μmol/L
Method: (§3) The A2058 and BLM melanoma cells were seeded at a density of 1 × 10^5/dish in a Petri dish. Twenty-four hours after incubation, A2058 cells were treated with chalcone 1C at 10 μmol/L concentration, BLM cells at 20 μmol/L concentration and both melanoma cell lines were treated with DMSO as the negative control at the same concentrations. For flow cytometric analysis of the cell cycle, adherent and floating A2058 and BLM melanoma cells were harvested in three different times (24, 48 and 72 h) after treatment with chalcone 1C and DMSO, washed in cold washing buffer (PBS), fixed in cold 70% ethanol and stored at −20 °C at least overnight. Prior to analysis, cells were washed with PBS, resuspended in staining solution (Triton X-100 final concentration 0.1%, ribonuclease A final concentration 0.5 mg/mL and propidium iodide final concentration 0.025 mg/mL, all Sigma), and incubated for 30 min in the dark at room temperature. Stained melanoma cells were analysed using a BD FACSCalibur^TM Flow Cytometer (Becton Dickinson, San Jose, CA, USA). Three independent analyses were performed.

A2058 melanoma cells [4] = assay: Cell cycle analysis by flow cytometry (PI); type: cell-based, human; conditions: A2058, 1C 10 μmol/L
Method: as §3

MCF-10A = assay: BrdU cell proliferation assay; type: cell-based; conditions: Homo sapiens; MCF-10A noncancer cell line

## COc1cccc(OC)c1C(=O)/C=C/c1c2ccccc2nc2ccccc12 [Compound 1C, (2E)-3-(acridin-9-yl)-1-(2,6-dimethoxyphenyl)prop-2-en-1-one]
BLM; Homo sapiens, BLM, 72 h incubation
  IC50: 17.9 ± 0.87 µM
BLM; MCF-10A vs BLM, calculated on the basis of MTT results
  Selectivity index, BLM (MTT): 2.0
BLM melanoma cells [1]; 24 h
  Dead An−/PI+: 6.25 ± 0.20
  Early Apo An+/PI−: 12.96 ± 0.77
  Late Apo An+/PI+: 6.90 ± 0.09
  Live An−/PI−: 73.90 ± 0.49
BLM melanoma cells [1]; 48 h
  Dead An−/PI+: 5.81 ± 0.86
  Early Apo An+/PI−: 20.25 ± 1.27
  Late Apo An+/PI+: 12.40 ± 0.49
  Live An−/PI−: 61.50 ± 2.61
BLM melanoma cells [1]; 72 h
  Dead An−/PI+: 5.90 ± 1.47
  Early Apo An+/PI−: 25.95 ± 3.80
  Late Apo An+/PI+: 28.55 ± 3.23
  Live An−/PI−: 39.60 ± 0.90
A2058 melanoma cells [2]; 24 h
  Dead An−/PI+: 3.41 ± 0.46
  Early Apo An+/PI−: 7.53 ± 1.17
  Late Apo An+/PI+: 4.22 ± 0.47
  Live An−/PI−: 84.80 ± 0.24
A2058 melanoma cells [2]; 48 h
  Dead An−/PI+: 5.94 ± 0.52
  Early Apo An+/PI−: 11.52 ± 0.42
  Late Apo An+/PI+: 13.85 ± 2.57
  Live An−/PI−: 68.70 ± 1.63
A2058 melanoma cells [2]; 72 h
  Dead An−/PI+: 11.65 ± 1.43
  Early Apo An+/PI−: 13.30 ± 1.71
  Late Apo An+/PI+: 23.05 ± 4.94
  Live An−/PI−: 52.00 ± 5.23
BLM melanoma cells [3]; 24 h
  G1: 19.35 ± 1.43
  G2/M: 63.25 ± 0.45
  S: 9.19 ± 0.28
  subG0: 8.22 ± 1.62
BLM melanoma cells [3]; 48 h
  G1: 11.65 ± 0.69
  G2/M: 54.95 ± 0.45
  S: 16.35 ± 0.20
  subG0: 17.05 ± 0.45
BLM melanoma cells [3]; 72 h
  G1: 13.85 ± 1.18
  G2/M: 29.25 ± 0.04
  S: 32.60 ± 2.69
  subG0: 24.30 ± 3.84
A2058 melanoma cells [4]; 24 h
  G1: 34.67 ± 4.92
  G2/M: 52.23 ± 7.03
  S: 11.79 ± 1.51
  subG0: 1.30 ± 1.11
A2058 melanoma cells [4]; 48 h
  G1: 24.60 ± 11.45
  G2/M: 59.73 ± 12.23
  S: 8.12 ± 1.15
  subG0: 7.54 ± 3.73
A2058 melanoma cells [4]; 72 h
  G1: 18.67 ± 8.56
  G2/M: 60.37 ± 4.42
  S: 8.85 ± 2.70
  subG0: 12.12 ± 5.84
MCF-10A
  IC50: 32.9 ± 1.56 µM
